Reference: US9687553B2, “Polymeric nanocarriers with linear dual response mechanism” (priority 2010, dated 2017)

Experiments:
[1] = Gd chelate; cited from earlier work
[2] = Relaxivity versus time, bench top contrast agent analyzer; format: physicochemical
Description: To probe the relationship between degradation and relaxivity further, real-time T1 measurements were taken of the polymer solutions using a Bruker minispec mq60 bench top contrast agent analyzer. This machine is able to take rapid T1 measurements over a long duration, allowing for real-time data to be collected. Following data collection, a relationship between T1 and relaxivity can be made, and the relaxivity can be plotted versus time. The relaxivity measurements were then normalized for direct comparison between the two polymer CAs.
Samples were first incubated at 37° C. and various pH values and then measured continuously over time.
To investigate the change in relaxivity over time at different pH values further, continuous T1 measurements were taken using a bench top contrast agent analyzer. Using this machine, the T1 time of a 200 μl solution in an NMR tube is able to be measured. Furthermore, the measurement duration is short, allowing for a more real-time investigation of the T1 time. Finally, the software allows for sequential measurements to be performed, allowing for over 24 h of continuous T1 data to be taken.
Solutions of both polymer contrast agents were prepared at the desired pH values and pre-incubated for 5 min at 37° C. prior to T1 measurements. […]

[3] = system: HCT116 cells; experiment: Transfection and EGFP expression, microscopy and flow cytometry; format: cell-based; conditions: 300 nM bafilomycin A1, nanocarrier delivery
Protocol: Expression and transfection efficiency of the HCT116 cells was tested by incubating them for 4 hr before washing excess nanocarriers and incubating cells in fresh media for 48 hr. […] PLGA-treated cells only had 2% of the cell population with signal intensity above background.
Immediate burst degradation and release of DNA from the dual pH-responsive nanocarriers only occurs in an environment of low pH. The endosome's low pH offers the appropriate stimulus to solubilize the polymer, resulting in an accelerated degradation via ketal hydrolysis. Bafilomycin A1, an inhibitor of V-ATPase, blocks the acidification of endosomes and has been previously used to characterize the mechanism of release of pH dependent polyplexes and nanocarriers. […] EGFP expression via nanocarrier delivery in HCT116 cells, measured by mean fluorescence, was affected by the presence of bafilomycin A1, causing 66% reduction in signal relative to non-treated cells (FIG. 37). […]
HCT116 cells were plated at a ˜50% density in a 24 well culture plate and allowed to attach overnight. […] The cells were then incubated for 48 hours and subsequently analyzed by fluorescence microscopy (Nikon) or flow-cytometry (Accuri C6) to detect green fluorescence. […] For flow cytometry, cells were first trysonized for […] followed by two washes with PBS and analyzed immediately. […]

Gd-DTPA-bisamide
stability constant (log K) [1]: 16.84

O=C([O-])CN(CCN(CC(=O)[O-])CC(=O)O)CCN(CC(=O)[O-])CC(=O)O.[Gd+3] [Gd-DTPA]
relaxivity as measured [2]: 3.64 ± 0.12 mM⁻¹ s⁻¹ | stability constant (log K) [1]: 22.46

CO/C1=C\C(C)=C\[C@@H](C)[C@@H](O)[C@@H](C)C/C(C)=C/C=C/[C@H](OC)[C@@H]([C@@H](C)[C@@H](O)[C@H](C)[C@@]2(O)C[C@@H](O)[C@H](C)[C@@H](C(C)C)O2)OC1=O [bafilomycin A1]
reduction in EGFP signal (mean fluorescence) relative to non-treated cells [3]: 66%
